Data taken from US11891601B2, “Method to enhance the transcription regulation of SUPT4H on genes containing repetitive nucleotide sequences” (National Yang-Ming University, priority 2018, dated 2024).

Test system: HD-Drosophila expressing mutant HTT97Q
Test: Rough eye phenotype in HD-Drosophila (Gmr-HTT97Q)
Assay type: in vivo, Drosophila melanogaster
Conditions: 10 μM 6CR in media, 4-day-old progenies
Description: The Gmr-ga14-UAS-HTT97Q/cyo line expressing HTT97Q under the control of Gmr-gal4 in compound eyes was provided by MT SU (National Taiwan Normal University, Taipei, Taiwan). Fly stock was maintained and crossed at 25° C. on a standard cornmeal yeast agar medium.
In each compound treatment experiment, 15 Gmr-ga14-UAS-HTT97Q/cyo male flies were crossed with 15 Gmr-ga14-UAS-HTT-97Q/cyo females in a vial containing 10 mL of media supplemented with the testing compound at a final concentration of 10 μM 6CR (Sigma) or/and 100 μM Tropolone (Sigma). 6-chloropurine riboside (6CR) is a chemical reagent that inhibits the activity of SUPT4H by preventing the complex formation of SUPT4H/SUPT5H (Patent No.: US2018/0064744A1). Parent flies were removed after 7 days, and 4-day-old progenies carrying one Gmr-ga14-UAS-HTT97Q allele were collected for eye morphology examination. […] In each treatment group, flies were analyzed and normalized with control flies. […]
Please refer to FIG. 8. […] After parent fly removal, the 4-day-old progenies carrying one Gmr-ga14-UAS-HTT97Q allele were collected and analyzed for eye morphology. […] 4-day-old progenies as described above were collected and analyzed the levels of mutant HTT by Western blotting. α-tubulin was included and served as a loading control. […]

OC[C@H]1O[C@@H](n2cnc3c(Cl)ncnc32)[C@H](O)[C@@H]1O [6-chloropurine riboside (6CR), 6-chloropurine riboside]
rescue of rough eye phenotype, 6CR alone: rescue effect
